Experimental data as given in patent US8227468B2, “Cathepsin S inhibitor compounds” (Eli Lilly and Company, priority 2010, dated 2012).

Columns and labels:
[1] = molecular target: human cathepsin B (Homo sapiens, UniProt P07858); assay: human cathepsin B enzyme inhibitor (selectivity) assay; type: biochemical
Description: (§1) Potency assays for human cathepsin S and mouse cathepsin S and selectivity assays for human cathepsins L, B, K, V, and F are described below. The experimental conditions and/or materials of each assay differ slightly and therefore such differences are noted either directly within the general assay conditions or coded according to the respective enzyme assay using designations 1a through 1 g in Table 1 immediately following the general assay conditions.
(§2) Test compounds are prepared in DMSO to make up a 10 mM stock solution. The stock solution is serially diluted in DMSO to obtain a ten-point dilution curve with a final compound concentration range 1a in a 96-well round-bottom plate before conducting the in vitro enzymatic assay.
(§3) Amount 1c of substrate, benzyloxycarbonyl-L-leucyl-L-arginine-4-methyl-coumaryl-7-amide (Peptide Institute), prepared in assay buffer, is added to each well of the plate for a final concentration 1d. Amount 1e of the respective enzyme, described immediately hereafter, prepared in assay buffer is added to each well of the plate containing substrate and test compound resulting in a final concentration 1f to initiate the reaction. • Human cathepsins S, L, K, and V: Obtained from Calbiochem. • Mouse cathepsin S: Briefly, mouse cathepsin S is cloned in baculovirus using a mCathepsin S-pAN51(T760) construct containing a histidine tag. […]

[2] = molecular target: T1, human cathepsin L (Homo sapiens, UniProt P07711); assay: human cathepsin L enzyme inhibitor (selectivity) assay; type: biochemical
T1 construct: purchased Calbiochem
T1 sequence (P07711 114-333): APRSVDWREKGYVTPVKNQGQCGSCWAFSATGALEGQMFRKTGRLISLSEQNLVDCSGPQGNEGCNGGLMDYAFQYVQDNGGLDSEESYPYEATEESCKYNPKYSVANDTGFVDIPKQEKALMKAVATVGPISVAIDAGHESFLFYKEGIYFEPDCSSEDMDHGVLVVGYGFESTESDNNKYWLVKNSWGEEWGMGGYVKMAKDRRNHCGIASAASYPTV
Description: as §1, §2, §3

[3] = molecular target: T2, human cathepsin V (Homo sapiens, UniProt O60911); assay: human cathepsin V enzyme inhibitor (selectivity) assay; type: biochemical
T2 construct: purchased Calbiochem
T2 sequence (O60911 114-334): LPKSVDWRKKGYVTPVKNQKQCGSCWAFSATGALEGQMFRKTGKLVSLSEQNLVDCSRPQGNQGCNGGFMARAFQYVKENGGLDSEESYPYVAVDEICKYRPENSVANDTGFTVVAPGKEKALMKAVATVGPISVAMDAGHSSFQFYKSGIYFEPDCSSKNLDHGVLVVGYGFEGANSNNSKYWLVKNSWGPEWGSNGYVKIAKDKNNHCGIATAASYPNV
Description: as §1, §2, §3

[4] = molecular target: T3, human cathepsin K (Homo sapiens, UniProt P43235); assay: human cathepsin K enzyme inhibitor (selectivity) assay; type: biochemical
T3 construct: purchased Calbiochem
T3 sequence (P43235 115-329): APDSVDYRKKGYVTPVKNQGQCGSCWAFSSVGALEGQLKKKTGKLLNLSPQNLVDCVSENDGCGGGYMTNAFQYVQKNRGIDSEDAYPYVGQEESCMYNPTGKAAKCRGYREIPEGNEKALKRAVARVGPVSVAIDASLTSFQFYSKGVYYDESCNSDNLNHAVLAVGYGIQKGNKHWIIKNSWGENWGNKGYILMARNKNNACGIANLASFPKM
Description: as §1, §2, §3

[5] = molecular target: T4, mouse cathepsin S (Mus musculus, UniProt O70370); assay: mouse cathepsin S enzyme inhibitor assay; type: biochemical
T4 construct: histidine tag; made in house
Description: as §1, §2, §3

[6] = molecular target: T5, human cathepsin S (Homo sapiens, UniProt P25774); assay: human cathepsin S enzyme inhibitor assay; type: biochemical
T5 construct: purchased Calbiochem
T5 sequence (P25774 115-331): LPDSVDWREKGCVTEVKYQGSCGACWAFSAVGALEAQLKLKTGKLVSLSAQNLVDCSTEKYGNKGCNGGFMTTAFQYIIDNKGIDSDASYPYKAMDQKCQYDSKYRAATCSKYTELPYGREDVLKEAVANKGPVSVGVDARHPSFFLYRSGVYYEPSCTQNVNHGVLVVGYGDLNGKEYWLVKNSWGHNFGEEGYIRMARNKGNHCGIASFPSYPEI
Description: as §1, §2, §3

[7] = tested on: p10 in PWBC; assay: p10 Accumulation Assay; type: in vivo, mouse; settings: 4 hr.; for In vivo relative p10 accumulation in PWBC: mice, relative to vehicle, normalized with tubulin, mean ± SD
Description: After 4 hr., whole blood (300-500 μL) is drawn from each mouse. The step of removing red blood cells is performed by adding one mL Flow Cytometry Lysing Solution™ (Santa Cruz Biotechnology, Inc.), keeping at room temperature for 10 min., centrifuging at 4000 rpm for 5 min. and then discarding the supernatant. This step is repeated once to remove the red blood cells completely. The PWBC pellet is resuspended with 50 μL CytoBuster™ Reagent (Novagen) and sonicated at high power for 5-10 sec.
The p10 amount is determined using a Western blot. […] Gels are run at 120 V for 60 min. with the NUPAGE® MES SDS running buffer (Invitrogen). Proteins are transferred to 0.2 μm nitrocellulose (BIO-RAD) at 100 V for 30 min. with NUPAGE® Transfer Buffer (Invitrogen) and 20% methanol (EMD). Blot is briefly rinsed with PBS and blocked in 10 mL in ODYSSEY® Blocking Buffer (LI-COR Biosciences) at room temperature for 60 min. For p10, the blot is incubated with primary antibody against mouse CD74 (1 μg/ml of rat anti-CD74 antibody)(BD Bioscience) in blocking buffer at 4° C. overnight. For tubulin control, the blot is incubated with rabbit anti-beta tubulin pAb (0.2 μg/ml)(Abcam) in blocking buffer at 4° C. overnight. The blot is washed with washing buffer (DPBS from HyClone) with 0.01% polysorbate 20 four times for 10 min. each. The blot is then incubated with secondary antibody at room temperature for 60 min. For p10, ALEXA FLUOR® 680 goat anti rat IgG (1:5000 dilution)(Invitrogen) is used. For tubulin, ALEXA FLUOR® 680 goat anti rabbit IgG (1:5000 dilution)(Invitrogen). The blot is again washed as described above and placed in PBS for scanning.
The images are captured by scanning on an ODYSSEY® Infrared Imager (LI-COR Biosciences). The p10 amount is analyzed with ODYSSEY® software and normalized with the tubulin amount. The data are statistically analyzed with JMP® 7 software (Cary, N.C.). Values are represented as means±standard deviation.

[8] = tested on: CaCl2-induced AAA (aortic luminal perimeter); assay: CaCl2-induced AAA Animal Efficacy Model; type: in vivo, mouse; settings: for In Vivo Percentage (%) Reduction of AAA: 129SvEv mice, aortic luminal perimeter by ultrasound, mean ± SD
Description: The first dose is given one day prior to surgery (p.m.) and the second dose is given the morning of surgery. […] B.i.d. dosing (a.m. and p.m.) is continued the day after surgery for 28 days. On the day of surgery, animals received analgesia ([…]®, 0.1 mg/kg) subcutaneously 10 min. pre-operatively and 3 hr. post-operatively. Mice are anesthetized by inhalation of 2% isoflurane and a laparotomy is performed. The abdominal aorta is exposed by retracting the bowel laterally with a surgical retractor and leaving the bowel in the abdominal cavity. […] Once isolated, the region of interest of the abdominal aorta is wrapped with a premeasured sterile cotton gauze soaked in 0.25 M aqueous CaCl2 solution. In sham control animals, 0.9% saline is substituted for CaCl2. After 7 min., the gauze is removed and a second CaCl2 soaked gauze (or 0.9% saline soaked gauze in sham animals) is applied. Following a second 7 minute period, the gauze is removed, the aorta is rinsed with 0.9% saline and the abdomen is closed. […] After 4 weeks of dosing as described above, the aortic luminal perimeter, area and diameter of the aortic segments that were wrapped with gauze are determined by ultrasound (Biosound Ultrasound-7.5 MHz) and statistically analyzed with JMP® 7 software (Cary, N.C.).

IC50 [1]: ~94 µM
IC50 [2]: > 167 µM
IC50 [3]: > 100 µM
IC50 [4]: > 100 µM
IC50 [5]: ~0.0039 µM
IC50 [6]: ~0.0102 µM
Compound: CNC(=O)O[C@H]1CCc2ccc(N3CCN(C4COC4)CC3)cc2[C@@H]1NC(=O)c1ccc(F)cc1 [Example 2, [(1S,2S)-1-[(4-Fluorobenzoyl)amino]-7-[4-(oxetan-3-yl)piperazin-1-yl]tetralin-2-yl] N-methylcarbamate]
In vivo relative p10 accumulation in PWBC ([7]; 3 mg/kg oral gavage): 1.1 ± 0.7 fold increase
In vivo relative p10 accumulation in PWBC ([7]; 10 mg/kg oral gavage): 2.2 ± 1.3 fold increase
In vivo relative p10 accumulation in PWBC ([7]; 30 mg/kg oral gavage): 4.6 ± 1.2 fold increase
effect on p10 in PWBC (in words) ([7]; 3-30 mg/kg oral): dose dependently increase p10 in PWBC
In Vivo Percentage (%) Reduction of AAA ([8]; 1 mg/kg oral gavage b.i.d. 4 weeks): 11 ± 7%
In Vivo Percentage (%) Reduction of AAA ([8]; 3 mg/kg oral gavage b.i.d. 4 weeks): 32 ± 9%
In Vivo Percentage (%) Reduction of AAA ([8]; 10 mg/kg oral gavage b.i.d. 4 weeks): 43 ± 9%
In Vivo Percentage (%) Reduction of AAA ([8]; 30 mg/kg oral gavage b.i.d. 4 weeks): 52 ± 7%
effect on aortic luminal perimeter (in words) ([8]; 1-30 mg/kg oral b.i.d. 4 weeks): reduce the aortic luminal perimeter in a dose-dependent manner
